Measured values as given in article PMC12650660, “Novel Synthetic Strategies Towards Analogues of Cadaside and Malacidin Antibiotic Peptides” (Biomolecules, 2025).
Values after ≈ are worked out from the molar mass of the structure shown. “Also recorded” adds a separate entry of the source. Numbered stars: 1 amine (or outer) side, 2 acyl side, 3 side chain; on linkers, the order of the positions; unused ones are H or OH. Bridge positions count the residues as written; N and C are the ends. Square brackets hold non-standard residues; d marks the D form. Peptide text beside a SMILES is read from it. * marks the point of attachment. β2hAla(R) = C[C@H](CN[*:1])C(=O)[*:2]; Decanoyl = CCCCCCCCCC(=O)*; Dap = NC[C@H](N)C(=O)O; Sar = CNCC(=O)O

Key:
[1] = system: B. subtilis 168; type: cell-based; details: 168, 24 h
Protocol: MICs were measured in triplicate by microbroth dilution. An overnight culture of B. subtilis 168 (DSMZ German Collection of Microorganisms and Cell Cultures GmbH) was inoculated at 5 × 10^5 CFU/mL in cation-adjusted Mueller–Hinton broth (MHB II) with or without 15 mM or 100 mM CaCl2. Serial two-fold peptide dilutions (128 - 1 µg/mL for analogues and 16 - 0.25 µg/mL for daptomycin) were incubated in polypropylene U-bottom 96-well plates (200 µL final volume) at 37 °C for 24 h. MIC was the lowest concentration at which no growth was observed. Optical density measurements at 620 nm were performed using a Thermo Scientific Multiskan FC (Thermo Fisher Scientific Inc., Paisley, UK). MIC was determined from the lowest concentration at which no tubidity was observed, using an untreated positive growth control, and a broth-only sterility control as references.

[2] = TLC precursor-binding assay with lipid II; parameters: key to Lipid II (TLC binding): “+” indicates binding confirmed; “-” indicates no binding; “~” indicates potential binding with absence of precursor band; details: for Lipid II (TLC binding): peptide 0.5, 1, 2 equiv. (nisin 0.1, 0.5, 1 equiv.) with lipid II in Tris·HCl pH 7.5, 50 mM CaCl2, 1 h, silica TLC; for binding to lipid II in TLC assay (in words): lipid II spot on TLC after incubation, PMA staining in Figure S6
Protocol: (§1) Lipid II and undecaprenyl phosphate (C55-P) (1 equiv., 30 µL) in Tris•HCl buffer (0.2% Triton X-100, 26 mM MgCl2, and 50 mM CaCl2 at pH 7.5) were incubated with the peptides (0.5, 1, 2 equiv.) or nisin (0.1, 0.5, 1 equiv.) in 30 µL water for 1 h. The reaction was then extracted with ^tBuOH/6 M PyOAc (2/1 v/v, 100 µL) and the organic phase was dried using an Eppendorf vacuum centrifuge 5301 (Fisher Scientific, Loughborough, UK) under reduced pressure. The solid was redissolved in CHCl3/MeOH (1/1 v/v, 30–60 µL) for spotting onto the TLC plates. In addition to the peptide–lipid mixtures, a control of each peptide/nisin with 30 µL buffer, and a control of each lipid with 30 µL HPLC-grade water were also incubated and subjected to the same workup. Silica TLC plates were run in a CHCl3/MeOH/H2O/NH3 (88/48/10/1 v/v) solvent system and stained using iodine vapour, phosphomolybdic acid (PMA), or KMnO4 stain, as well as visualisation at 254 nm and 365 nm.

[3] = TLC precursor-binding assay with C55-P; parameters: key to C55-P (TLC binding): “+” indicates binding confirmed; “-” indicates no binding; “~” indicates potential binding with absence of precursor band; details: for C55-P spot on TLC after incubation with peptide (in words): absence of C55-P spot = potential indicator of binding, KMnO4 staining in Figure S5; for C55-P (TLC binding): peptide 0.5, 1, 2 equiv. with C55-P in Tris·HCl pH 7.5, 50 mM CaCl2, 1 h, silica TLC
Protocol: as §1

| Compound | MIC + Ca^2+ [1] | MIC − Ca^2+ [1] | Lipid II (TLC binding) [2] | C55-P spot on TLC after incubation with peptide (in words) [3] | C55-P (TLC binding) [3] | binding to lipid II in TLC assay (in words) [2] |
| --- | --- | --- | --- | --- | --- | --- |
| CCCCCCCCCC(=O)NC[C@@H](C)C(=O)NCC(=O)N[C@H](CCC(=O)O)C(=O)N[C@@H](Cc1ccc(O)cc1)C(=O)N[C@@H]1C(=O)N[C@H]([C@H](C)CC)C(=O)N[C@@H](CC(=O)O)C(=O)N[C@@H](CC(=O)O)C(=O)N2CCC[C@H]2C(=O)NCC(=O)N[C@@H](CCC(=O)O)C(=O)N[C@@H](CCC(=O)O)C(=O)N(C)CC(=O)O[C@@H]1C [Peptide C2a] (Decanoyl-[β2hAla(R)]G[dE]YT[dI]DDPGEE[Sar]; ester 5-C) | 128 µg/mL | 128 µg/mL (≈ 84.4 µM) | - | no longer visible | ~ |  |
| CCCCCCCCCC(=O)NC[C@@H](C)C(=O)NCC(=O)N[C@H](CCC(=O)O)C(=O)N[C@@H](Cc1ccc(O)cc1)C(=O)N[C@@H]1C(=O)N[C@H]([C@H](C)CC)C(=O)N[C@@H](CC(=O)O)C(=O)N[C@@H](CC(=O)O)C(=O)N2CCC[C@H]2C(=O)NCC(=O)N[C@H](CC(=O)O)C(=O)N[C@@H](CC(=O)O)C(=O)N(C)CC(=O)O[C@@H]1C [Peptide C3] (Decanoyl-[β2hAla(R)]G[dE]YT[dI]DDPG[dD]D[Sar]; ester 5-C) | 128 µg/mL | 128 µg/mL (≈ 86 µM) | - | no spots for C55-P; also recorded: no longer visible | ~ |  |
| CCCCCCCCCC(=O)NC[C@@H](C)C(=O)NCC(=O)N[C@H](CCC(=O)O)C(=O)N[C@@H](Cc1ccc(O)cc1)C(=O)N[C@@H]1C(=O)N[C@H]([C@H](C)CC)C(=O)N[C@@H](CC(=O)O)C(=O)N[C@@H](CC(=O)O)C(=O)N2CCC[C@H]2C(=O)NCC(=O)N[C@@H](CC(=O)O)C(=O)N[C@@H](CC(=O)O)C(=O)N(C)CC(=O)O[C@@H]1C [Peptide C4] (Decanoyl-[β2hAla(R)]G[dE]YT[dI]DDPGDD[Sar]; ester 5-C) | 128 µg/mL | 128 µg/mL (≈ 86 µM) | - |  | - |  |
| CCCCCCCCCC(=O)NC[C@@H](C)C(=O)NCC(=O)N[C@H](CCC(=O)O)C(=O)N[C@@H](Cc1ccc(O)cc1)C(=O)N[C@@H]1C(=O)N[C@H]([C@H](C)CC)C(=O)N[C@@H](CC(=O)O)C(=O)N[C@@H](CC(=O)O)C(=O)N2CCC[C@H]2C(=O)NCC(=O)N[C@H](CC(=O)O)C(=O)N[C@@H](CCC(=O)O)C(=O)N(C)CC(=O)O[C@@H]1C [Peptide C5] (Decanoyl-[β2hAla(R)]G[dE]YT[dI]DDPG[dD]E[Sar]; ester 5-C) | 128 µg/mL | 128 µg/mL (≈ 85.2 µM) | - |  | - |  |
| CCCCCCCCCC(=O)NC[C@@H](C)C(=O)NCC(=O)N[C@H](CCC(=O)O)C(=O)N[C@@H](Cc1ccc(O)cc1)C(=O)N[C@@H]1C(=O)N[C@H]([C@H](C)CC)C(=O)N[C@@H](CC(=O)O)C(=O)N[C@@H](CC(=O)O)C(=O)N2CCC[C@H]2C(=O)NCC(=O)N[C@@H](CC(=O)O)C(=O)N[C@@H](CCC(=O)O)C(=O)N(C)CC(=O)O[C@@H]1C [Peptide C6] (Decanoyl-[β2hAla(R)]G[dE]YT[dI]DDPGDE[Sar]; ester 5-C) | 128 µg/mL | 128 µg/mL (≈ 85.2 µM) | - | no longer visible | ~ |  |
| CCCCCCCCCC(=O)NC[C@@H](C)C(=O)NCC(=O)N[C@H](CCC(=O)O)C(=O)N[C@@H](Cc1ccc(O)cc1)C(=O)N[C@@H]1C(=O)N[C@H]([C@H](C)CC)C(=O)N[C@@H](CC(=O)O)C(=O)N[C@@H](CC(=O)O)C(=O)N2CCC[C@H]2C(=O)NCC(=O)N[C@H](CCC(=O)O)C(=O)N[C@@H](CC(=O)O)C(=O)N(C)CC(=O)O[C@@H]1C [Peptide C7a] (Decanoyl-[β2hAla(R)]G[dE]YT[dI]DDPG[dE]D[Sar]; ester 5-C) | 128 µg/mL | 128 µg/mL (≈ 85.2 µM) | - |  | - | lack of binding |
| CCCCCCCCCC(=O)NC[C@@H](C)C(=O)NCC(=O)N[C@H](CCC(=O)O)C(=O)N[C@@H](Cc1ccc(O)cc1)C(=O)N[C@@H]1C(=O)N[C@H]([C@H](C)CC)C(=O)N[C@@H](CC(=O)O)C(=O)N[C@@H](CC(=O)O)C(=O)N2CCC[C@H]2C(=O)NCC(=O)N[C@@H](CCC(=O)O)C(=O)N[C@@H](CC(=O)O)C(=O)N(C)CC(=O)O[C@@H]1C [Peptide C8] (Decanoyl-[β2hAla(R)]G[dE]YT[dI]DDPGED[Sar]; ester 5-C) | 128 µg/mL | 128 µg/mL (≈ 85.2 µM) | - |  | - |  |
| CCCCCCCCCC(=O)NC[C@@H](C)C(=O)NCC(=O)N[C@H](CCC(=O)O)C(=O)N[C@@H](Cc1ccc(O)cc1)C(=O)N[C@@H]1C(=O)N[C@H]([C@H](C)CC)C(=O)N[C@@H](CC(=O)O)C(=O)N[C@@H](CC(=O)O)C(=O)N2CCC[C@H]2C(=O)NCC(=O)N[C@H](CCC(=O)O)C(=O)NCC(=O)N[C@@H](CCC(=O)O)C(=O)N(C)CC(=O)O[C@@H]1C [Peptide C9] (Decanoyl-[β2hAla(R)]G[dE]YT[dI]DDPG[dE]GE[Sar]; ester 5-C) | 128 µg/mL | 128 µg/mL (≈ 81.3 µM) | - | a lack of binding | - |  |
| CCCCCCCCCC(=O)N[C@@H](CC(=O)O)C(=O)N[C@H]1CNC(=O)[C@@H]2CCCN2C(=O)[C@H](C(C)C)NC(=O)[C@@H](CC(=O)O)NC(=O)CNC(=O)[C@H](CC(=O)O)NC(=O)[C@H](CC(=O)O)NC(=O)[C@H](CCCCN)NC(=O)[C@@H](C(C)C)NC1=O [Peptide M1] (Decanoyl-D[Dap][dV]KDDG[dD]VP; lactam 2-C) | 128 µg/mL | 128 µg/mL (≈ 108 µM) | - |  | - |  |
| CCCCCCCCCC(=O)N[C@@H](CC(=O)O)C(=O)N[C@H]1CNC(=O)[C@@H]2CCCN2C(=O)[C@H](C(C)C)NC(=O)[C@@H](CC(=O)O)NC(=O)CNC(=O)[C@H](CC(=O)O)NC(=O)CNC(=O)[C@H](CC(=O)O)NC(=O)[C@H](CCCCN)NC(=O)[C@@H](C(C)C)NC1=O [Peptide M2] (Decanoyl-D[Dap][dV]KDGDG[dD]VP; lactam 2-C) | 128 µg/mL | 128 µg/mL (≈ 103 µM) | - |  | - |  |
| CCCCCCCCCC(=O)N[C@@H](CC(=O)O)C(=O)N[C@H]1CNC(=O)[C@@H]2CCCN2C(=O)[C@H](C(C)C)NC(=O)[C@H](CC(=O)O)NC(=O)CNC(=O)[C@H](CC(=O)O)NC(=O)CNC(=O)[C@H](CC(=O)O)NC(=O)[C@H](CCCCN)NC(=O)[C@@H](C(C)C)NC1=O [Peptide M3] (Decanoyl-D[Dap][dV]KDGDGDVP; lactam 2-C) | 128 µg/mL | 128 µg/mL (≈ 103 µM) | - |  | - | lack of binding |
| CCCCCCCCCC(=O)N[C@@H](CC(=O)O)C(=O)N[C@H]1CNC(=O)[C@@H]2CCCN2C(=O)[C@H](C(C)C)NC(=O)CNC(=O)[C@@H](CC(=O)O)NC(=O)CNC(=O)[C@H](CC(=O)O)NC(=O)[C@H](CC(=O)O)NC(=O)[C@H](CCCCN)NC(=O)[C@@H](C(C)C)NC1=O [Peptide M4] (Decanoyl-D[Dap][dV]KDDG[dD]GVP; lactam 2-C) | 128 µg/mL | 128 µg/mL (≈ 103 µM) | - |  | - |  |
| CCCCCCCCCC(=O)N[C@@H](CC(=O)O)C(=O)N[C@H]1CNC(=O)[C@@H]2CCCN2C(=O)[C@H](C(C)C)NC(=O)CNC(=O)[C@H](CC(=O)O)NC(=O)CNC(=O)[C@H](CC(=O)O)NC(=O)[C@H](CC(=O)O)NC(=O)[C@H](CCCCN)NC(=O)[C@@H](C(C)C)NC1=O [Peptide M5] (Decanoyl-D[Dap][dV]KDDGDGVP; lactam 2-C) | 128 µg/mL | 128 µg/mL (≈ 103 µM) | - |  | - |  |
